# Target: H1047R PIK3CA enzyme (Homo sapiens, UniProt P42336, H1047R)
# Experiment: ADP-Glo Biochemical PIK3CA Kinase Assay
# H1047R PIK3CA enzyme, sequence (P42336 whole entry H1047R): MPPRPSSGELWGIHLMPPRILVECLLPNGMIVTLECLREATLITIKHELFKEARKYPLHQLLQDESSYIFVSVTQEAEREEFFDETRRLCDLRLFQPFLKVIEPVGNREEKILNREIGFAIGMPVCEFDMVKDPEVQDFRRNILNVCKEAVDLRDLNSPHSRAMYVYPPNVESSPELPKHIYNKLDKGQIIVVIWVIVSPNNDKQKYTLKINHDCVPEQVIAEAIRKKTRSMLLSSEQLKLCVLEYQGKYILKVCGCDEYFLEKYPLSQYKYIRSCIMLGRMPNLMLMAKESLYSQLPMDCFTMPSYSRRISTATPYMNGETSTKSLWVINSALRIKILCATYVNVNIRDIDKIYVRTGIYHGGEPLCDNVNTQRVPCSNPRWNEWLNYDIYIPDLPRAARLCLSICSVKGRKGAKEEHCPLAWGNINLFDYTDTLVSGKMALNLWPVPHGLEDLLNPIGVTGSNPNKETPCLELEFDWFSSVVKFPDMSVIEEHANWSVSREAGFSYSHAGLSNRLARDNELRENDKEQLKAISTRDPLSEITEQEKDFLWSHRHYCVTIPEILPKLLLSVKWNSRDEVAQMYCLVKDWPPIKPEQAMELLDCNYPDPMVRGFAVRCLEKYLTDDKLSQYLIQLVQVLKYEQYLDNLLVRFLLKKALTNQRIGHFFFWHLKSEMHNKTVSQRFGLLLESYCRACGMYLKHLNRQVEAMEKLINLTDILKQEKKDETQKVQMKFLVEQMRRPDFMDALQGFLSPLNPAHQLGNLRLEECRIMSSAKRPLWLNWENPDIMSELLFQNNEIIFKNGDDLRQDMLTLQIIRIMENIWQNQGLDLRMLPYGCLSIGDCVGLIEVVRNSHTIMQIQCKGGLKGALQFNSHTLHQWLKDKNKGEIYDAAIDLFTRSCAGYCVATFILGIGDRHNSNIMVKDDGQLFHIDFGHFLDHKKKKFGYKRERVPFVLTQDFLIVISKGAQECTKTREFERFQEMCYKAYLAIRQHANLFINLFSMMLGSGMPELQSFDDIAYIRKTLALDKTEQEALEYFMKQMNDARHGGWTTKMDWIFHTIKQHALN
# H1047R PIK3CA enzyme, sequence (P27986 whole entry partner): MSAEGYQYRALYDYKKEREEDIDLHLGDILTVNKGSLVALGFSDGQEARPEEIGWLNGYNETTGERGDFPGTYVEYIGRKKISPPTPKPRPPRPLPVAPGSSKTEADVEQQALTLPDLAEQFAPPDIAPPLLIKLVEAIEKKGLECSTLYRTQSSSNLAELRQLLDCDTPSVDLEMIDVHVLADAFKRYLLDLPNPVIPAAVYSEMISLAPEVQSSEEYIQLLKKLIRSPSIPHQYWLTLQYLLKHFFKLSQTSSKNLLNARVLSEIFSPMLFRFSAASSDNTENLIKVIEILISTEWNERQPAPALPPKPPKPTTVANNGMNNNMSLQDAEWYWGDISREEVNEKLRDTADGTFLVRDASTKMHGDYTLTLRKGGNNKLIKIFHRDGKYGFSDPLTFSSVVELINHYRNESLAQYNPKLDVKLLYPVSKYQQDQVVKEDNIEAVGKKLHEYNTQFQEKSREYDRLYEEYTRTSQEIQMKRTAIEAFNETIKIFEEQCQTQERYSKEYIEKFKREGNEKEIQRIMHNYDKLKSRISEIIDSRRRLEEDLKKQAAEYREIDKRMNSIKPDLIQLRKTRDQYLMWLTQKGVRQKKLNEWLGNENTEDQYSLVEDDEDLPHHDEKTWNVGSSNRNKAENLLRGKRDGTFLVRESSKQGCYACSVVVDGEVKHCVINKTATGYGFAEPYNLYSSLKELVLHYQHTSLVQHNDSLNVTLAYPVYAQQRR
row,IC50 [nM],Structure (SMILES)
1,1000 to 10000,Cn1ncc(-c2cc(NC(=O)c3cc(F)cc(C(F)(F)F)c3)c3c(c2)C(=O)N[C@@H]3c2cc(F)ccc2Cl)c1C#N [Compound I-1794]
2,≤ 100,Cn1cc(-c2cc(NC(=O)c3cc(F)cc(C(F)(F)F)c3)c3c(n2)C(=O)NC3c2cc(F)ccc2Cl)ccc1=O (centres unmarked) [Compound I-547]
3,1000 to 10000,"O=C1N[C@H](c2cc(F)ccc2Cl)c2c(NC(=O)N3C[C@](O)(C(F)(F)F)c4cc(F)ccc43)cc(N3CCOC3=O)cc21 (single isomer, unassigned) [Compound I-2674]"
4,10000 to 100000,O=C1NC(c2cc(F)ccc2Cl)c2c(NC(=O)C3CNCC(C(F)(F)F)C3)cc(-c3ccc4ncnn4c3)cc21 (mixture of isomers) [Compound I-2051]
5,500 to 1000,Cc1ncc(-c2cc(NC(=O)c3cc(F)cc(C(F)(F)F)c3)c3c(n2)C(=O)N[C@@H]3c2cc(F)ccc2Cl)cn1 [Compound I-652]
6,1000 to 10000,NC(=O)c1cc(-c2ccc3ncnn3c2)cc2c1C(c1cc(F)ccc1Cl)NC2=O (centres unmarked) [Compound I-1774]
7,100 to 500,N#CCn1ccnc1-c1cc(NC(=O)c2cc(F)cc(C(F)(F)F)c2)c2c(c1)C(=O)NC2c1cc(F)ccc1Cl (centres unmarked) [Compound I-1454]
8,10000 to 100000,O=C1NC(c2cc(F)ccc2Cl)c2c1cccc2-n1[nH]c(=O)c2ccccc21 (centres unmarked) [Compound I-1714]
9,10000 to 100000,O=C(Nc1cccc2c1C(c1cc(F)ccc1Cl)NC2=O)c1ccc(O)c(C(F)(F)F)c1 (centres unmarked) [Compound I-2363]
10,≤ 100,[2H]c1nc2cnc(-c3cc(NC(=O)c4cc(F)cc(C(F)(F)F)c4)c4c(c3)C(=O)NC4c3cc(F)ccc3Cl)cn2n1 (centres unmarked) [Compound I-2012]
11,≤ 100,N#CC1(n2cc(-c3cc(NC(=O)c4cc(F)cc(C(F)(F)F)c4)c4c(c3)C(=O)NC4c3cc(F)ccc3Cl)cn2)CC1 (centres unmarked) [Compound I-1800]
12,≤ 100,O=C(Nc1cc(-c2ccc3nc(C(F)F)cn3c2)cc2c1C(c1cc(F)ccc1Cl)NC2=O)c1cc(F)cc(C(F)(F)F)c1 (centres unmarked) [Compound I-1864]
13,10000 to 100000,O=C(Nc1cccc2c1C(c1cccc3c1NCC3)NC2=O)c1cc(F)cc(C(F)(F)F)c1 (centres unmarked) [Compound I-660]
14,1000 to 10000,O=C1NC(c2cc(F)ccc2Cl)c2c(NC(=O)C3OCCc4ccccc43)cc(-c3ccc4ncnn4c3)cc21 (centres unmarked) [Compound I-1939]
15,1000 to 10000,O=C1NC(c2cc(F)ccc2Cl)c2c(O)cc(-c3ccc4ncnn4c3)cc21 (centres unmarked) [Compound I-1891]
16,≤ 100,CC(C)(O)c1cc(NC(=O)N2CCc3ccccc32)c2c(c1)C(=O)N[C@H]2c1cc(F)ccc1Cl [Compound I-713]
17,1000 to 10000,O=C(Nc1cc(Br)cc2c1[C@@H](c1cc(F)c(F)cc1Cl)NC2=O)c1cc(F)cc(C(F)(F)F)c1 [Compound I-676]
18,1000 to 10000,O=C1NC(c2cc(F)ccc2Cl)c2c(NC(=O)N3CCc4ccc(OC(F)(F)F)cc43)cccc21 (centres unmarked) [Compound I-2480]
19,1000 to 10000,O=C1NC(c2cc(F)ccc2Cl)c2c(NC(=O)N3CCC(C(F)(F)F)C3)cc(Br)cc21 (centres unmarked) [Compound I-543]
20,100 to 500,[2H]c1nc2ccc(-c3cc(NC(=O)c4cc(F)cc(C(F)(F)F)c4)c4c(c3)C(=O)N[C@@H]4c3cc(F)ccc3Cl)cn2n1 (stereo in doubt) [Compound I-1786]
21,≤ 100,"O=C1N[C@@H](c2cc(F)ccc2Cl)c2c(NC(=O)N3C[C@@H](O)c4ccccc43)cc(-c3ccc4ncnn4c3)cc21 (single isomer, unassigned) [Compound I-1577]"

row,IC50 [nM],Structure (SMILES)
1,≤ 100,O=C(Nc1cc(-c2cnn(-c3cnccn3)c2)cc2c1C(c1cc(F)ccc1Cl)NC2=O)c1cc(F)cc(C(F)(F)F)c1 (centres unmarked) [Compound I-1608]
2,1000 to 10000,O=C(Nc1cccc2c1C(C1CCCCC13CC3)NC2=O)c1cc(F)cc(C(F)(F)F)c1 (racemic) [Compound I-1912]
3,1000 to 10000,O=C(Nc1cc(Br)cc2c1C(c1cc(F)ccc1Cl)NC2=O)c1cc(O)cc(F)c1 (centres unmarked) [Compound I-1283]
4,1000 to 10000,"O=C1N[C@H](c2cc(F)ccc2Cl)c2c(NC(=O)N3C[C@@](O)(C(F)(F)F)c4cc(F)ccc43)ccc(-n3ccnn3)c21 (single isomer, unassigned) [Compound I-2524]"
5,10000 to 100000,Cc1ccccc1C1NC(=O)c2cccc(NC(=O)c3cc(C(F)(F)F)ccn3)c21 (centres unmarked) [Compound I-337]
6,≤ 100,N#Cc1nccn1Cc1cc(NC(=O)c2cc(F)cc(C(F)(F)F)c2)c2c(c1)C(=O)NC2c1cc(F)ccc1Cl (centres unmarked) [Compound I-1557]
7,1000 to 10000,O=C(Nc1cccc2c1C(c1cccc3ccccc13)NC2=O)c1cc(F)cc(C(F)(F)F)c1 (centres unmarked) [Compound I-431]
8,≤ 100,CN=S(C)(=O)Cc1cc(NC(=O)c2cc(F)cc(C(F)(F)F)c2)c2c(c1)C(=O)NC2c1cc(F)ccc1Cl (centres unmarked) [Compound I-1434]
9,10000 to 100000,O=C1N[C@@H](c2cc(F)ccc2Cl)c2c(NC(=O)C3(c4cc(F)cc(C(F)(F)F)c4)CCCC3)cc(Br)cc21 [Compound I-2071]
10,100 to 500,CS(=O)(=O)CCCOc1cc(NC(=O)c2cc(F)cc(C(F)(F)F)c2)c2c(c1)C(=O)NC2c1cc(F)ccc1Cl (centres unmarked) [Compound I-735]
11,1000 to 10000,N#Cc1ccc(C(F)(F)F)c(NC(=O)Nc2cc(Br)cc3c2C(c2cc(F)ccc2Cl)NC3=O)c1 (centres unmarked) [Compound I-1051]
12,10000 to 100000,O=C(Nc1cc(-c2ccc3ncnn3c2)nc2c1C(C1CCOCC1)NC2=O)c1cc(F)cc(C(F)(F)F)c1 (centres unmarked) [Compound I-1705]
13,1000 to 10000,O=C(Nc1cc(-c2cn[nH]c2)nc2c1[C@@H](c1cc(F)ccc1Cl)NC2=O)c1cc(F)cc(C(F)(F)F)c1 [Compound I-193]
14,1000 to 10000,"O=C1N[C@H](c2cc(F)ccc2Cl)c2c(NC(=O)N3C[C@](O)(C(F)(F)F)c4cc(F)ccc43)cc(-n3ncccc3=O)cc21 (single isomer, unassigned) [Compound I-2535]"
15,1000 to 10000,"O=C1N[C@H](c2cc(F)ccc2Cl)c2c(NC(=O)N3C[C@@](O)(C(F)F)c4cc(F)ccc43)cc(F)cc21 (single isomer, unassigned) [Compound I-2632]"
16,≤ 100,O=C(Nc1cc(Nc2ccno2)cc2c1C(c1cc(F)ccc1Cl)NC2=O)c1cc(F)cc(C(F)(F)F)c1 (centres unmarked) [Compound I-1115]
17,10000 to 100000,"O=C1N[C@H](c2cc(F)ccc2Cl)c2c(NC(=O)N3C[C@](O)(C(F)F)c4ccccc43)cccc21 (single isomer, unassigned) [Compound I-2486]"
18,≤ 100,O=C(Nc1cc(Br)cc2c1C(c1cc(F)ccc1F)NC2=O)c1cc(F)cc(C(F)(F)F)c1 (centres unmarked) [Compound I-675]
19,500 to 1000,O=C1NC(c2cnccc2Cl)c2c(NC(=O)c3nsc4ccccc34)cccc21 (centres unmarked) [Compound I-160]
20,10000 to 100000,"O=C1N[C@@H](c2cc(F)ccc2Cl)c2c(NC(=O)N3C[C@@](O)(C(F)(F)F)c4cc(F)ccc43)ccc(-n3cccn3)c21 (single isomer, unassigned) [Compound I-2495]"
21,1000 to 10000,CNc1cc(Nc2csc3ccccc23)cc2c1C(=O)NC2c1ccccc1C (centres unmarked) [Compound I-77]

row,IC50 [nM],Structure (SMILES)
1,≤ 100,CC(C)n1cc(-c2cc(NC(=O)c3cc(F)cc(C(F)(F)F)c3)c3c(n2)C(=O)N[C@H]3c2cc(F)ccc2Cl)ccc1=O [Compound I-651]
2,10000 to 100000,"O=C1N[C@H](c2cc(F)ccc2Cl)c2c(NC(=O)N3C[C@H](O)C[C@@H](C(F)(F)F)C3)cccc21 (single isomer, unassigned) [Compound I-2236]"
3,≤ 100,"O=C(Nc1cc(C2(O)CC2)cc2c1C(c1cc(F)ccc1Cl)NC2=O)c1cc(F)cc(C(F)(F)F)c1 (centres unmarked) [Compound I-374, N-[3-(2-chloro-5-fluorophenyl)-6-(1-hydroxycyclopropyl)-1-oxo-2,3-dihydro-1H-isoindol-4-yl]-3-fluoro-5-(trifluoromethyl)benzamide]"
4,10000 to 100000,O=C(Nc1cc(Br)cc2c1C(c1cc(F)ccc1Cl)NC2=O)c1ccccc1F (centres unmarked) [Compound I-466]
5,1000 to 10000,O=C(CC1(C(F)(F)F)CC1)Nc1cc(-c2ccc3ncnn3c2)cc2c1C(c1cc(F)ccc1Cl)NC2=O (centres unmarked) [Compound I-2044]
6,≤ 100,O=C(Nc1cc(Br)cc2c1C(c1cc(F)cc(F)c1Cl)NC2=O)c1cc(F)cc(C(F)(F)F)c1 (centres unmarked) [Compound I-807]
7,1000 to 10000,Cn1cc(-c2cc(NC(=O)c3nsc4ccccc34)c3c(n2)C(=O)N[C@H]3c2ccccc2Cl)cn1 [Compound I-114]
8,≤ 100,CC1(Cc2cc(NC(=O)c3cc(F)cc(C(F)(F)F)c3)c3c(c2)C(=O)NC3c2cc(F)ccc2Cl)COC1 (centres unmarked) [Compound I-710]
9,10000 to 100000,"CNc1cc(NC(=O)N2C[C@@](O)(C(F)F)c3cc(F)ccc32)c2c(c1)C(=O)N[C@@H]2c1cc(F)ccc1Cl (single isomer, unassigned) [Compound I-2679]"
10,10000 to 100000,O=C1NC(c2cc(F)ccc2Cl)c2c(NC(=O)C3(c4cccc(F)c4)CCCC3)cc(Br)cc21 (centres unmarked) [Compound I-1638]
11,≤ 100,N#Cc1cc2nccn2cc1-c1cc(NC(=O)c2cc(F)cc(C(F)(F)F)c2)c2c(c1)C(=O)NC2c1cc(F)ccc1Cl (centres unmarked) [Compound I-1437]
12,1000 to 10000,"O=C1N[C@@H](c2cc(F)ccc2Cl)c2c(NC(=O)N3C[C@@](O)(C(F)F)c4cc(F)ccc43)cccc21 (single isomer, unassigned) [Compound I-2555]"
13,≤ 100,Cc1ccccc1C1NC(=O)c2c(C(=O)NCC(N)=O)ccc(NC(=O)c3nsc4ccccc34)c21 (centres unmarked) [Compound I-261]
14,10000 to 100000,O=C1NC(c2cc(F)ccc2Cl)c2c(NC(=O)N3CCC(F)C3)cc(Br)cc21 (centres unmarked) [Compound I-542]
15,≤ 100,O=C1NC(c2cc(F)ccc2Cl)c2c(NC(=O)c3coc4c(F)cc(F)cc34)cc(Br)cc21 (centres unmarked) [Compound I-731]
16,≤ 100,CN(C)C(=O)OCc1cc(NC(=O)c2cc(F)cc(C(F)(F)F)c2)c2c(c1)C(=O)NC2c1cc(F)ccc1Cl (centres unmarked) [Compound I-1532]
17,500 to 1000,C=CCCCOc1cc(NC(=O)c2cc(F)cc(C(F)(F)F)c2)c2c(c1)C(=O)NC2c1cc(F)ccc1Cl (centres unmarked) [Compound I-1234]
18,≤ 100,O=C(Nc1cc(-c2cc3ncnn3cc2F)cc2c1[C@H](c1cc(F)ccc1Cl)NC2=O)c1cc(F)cc(C(F)(F)F)c1 [Compound I-1868]
19,10000 to 100000,Cn1ncc(Br)c1C(=O)Nc1cccc2c1C(c1cc(F)ccc1Cl)NC2=O (centres unmarked) [Compound I-583]
20,≤ 100,O=C(Nc1cc(-c2cccc3cccnc23)cc2c1C(c1cc(F)ccc1Cl)NC2=O)c1cc(F)cc(C(F)(F)F)c1 (centres unmarked) [Compound I-1045]
